Assay results from US10568876B2, “Tetrahydroisoquinoline derivatives useful as inhibitors of diacylglyceride O-acyltransferase 2” (Merck Sharp & Dohme Corp., priority 2014, dated 2020).

What follows are molecules tested against hDGAT2 (Homo sapiens (Human), UniProt Q96PD7) (assay: DGAT2 Enzymatic Activity Assay). Details: hDGAT2 Sf-9 membrane prep; 25 μM diolein, 10 μM oleoyl-CoA; triolein product by LC/MS/MS; read-out: IC50 values for inhibition of DGAT2.
Type: biochemical
Method: Sf-9 insect cells were maintained in Grace's insect cell culture medium with 10% heated-inactivated fetal bovine serum, 1% Pluronic F-68 and 0.14 μg/ml Kanamycine sulfate in Erlenmeyer flasks at 28° C. in a shaker incubator. After infection with untagged hDGAT2 baculovirus at multiplicity of infection (MOI) 0.1 for 48 hours, cells were harvested. Cell pellets were suspended in buffer containing 10 mM Tris-HCl (pH 7.5), 1 mM EDTA (pH 8.0), 250 mM sucrose and Complete Protease Inhibitor Cocktail (Roche Diagnostics Corp., Indianapolis, Ill.), and sonicated on ice. Membrane fractions were isolated by ultracentrifugation (100,000×g pellet), resuspended in the same buffer, and frozen (−80° C.) for later use. The protein concentration was determined with the BCA Protein Assay kit (Pierce Biotechnology Inc., Rockford, Ill.). Expression of protein levels was analyzed by immunoblotting with goat polyclonal DGAT2 antibody C-15 and donkey anti-goat IgG HRP (Santa Cruz Biotechnology, Inc., Santa Cruz, Calif.) followed by detection with ECL reagent (GE Healthcare, Piscataway, N.J.).
LC/MS/MS analyses were performed using Thermal Fisher's LX4-TSQ Vantage system. This system consists of an Agilent binary high-performance liquid chromatography (HPLC) pumps and a TSQ Vantage triple quadrupole MS/MS instrument. For each sample, 2 μL, samples from the top organic layer of in-plate liquid-liquid extraction were injected onto a Thermo Betabasic C4 column (2.1 mm×20 mm, 5 μm particle size). The samples were then eluted using the following conditions; mobile phase: methanol/water with 0.1% ammonium format=92/8 (v/v), flow rate: 1 mL/min, temperature: 25 C. Data was acquired in positive mode using a heated electrospray ionization (HESI) interface. The operational parameters for the TSQ Vantage MS/MS instrument were a spray voltage of 3000 V, capillary temperature of 280° C., vaporizer temperature 400° C., shealth gas 60 arbitrary unit, Aux gas 40 arbitrary units, S-lens 113 and collision gas 0.16 Pascals. […] (SRM) chromatograms of triolein (Q1: 902.9>Q3: 602.3) and internal standard (Q1: 902.9>Q3: 602.3) were collected for 40 sec. The peak area was integrated by Xcalibur Quan software. The ratio between the triolein generated in the reaction and spiked in internal standard were used to generate percentage inhibition and IC50 values. Compound percentage inhibition was calculated by the following formula: Inhibition %=1-[(compound response low control)/(high control low control)]×100%. Potent compounds were titrated and IC50 were calculated by 4 parameter sigmoidal curve fitting formula.
DGAT2 activity was determined by measuring the amount of enzymatic product triolein (1,2,3-Tri(cis-9-octadecenoyl)glycerol) using the membrane prep mentioned above. The assay was carried out in deep well 384 plates in a final volume of 40 μL at room temperature. The assay mixture contained the following: assay buffer (100 mM Tris.Cl, pH 7.0, 20 mM MgCl2, 5% ethanol), 25 μM of diolein, 10 μM of oleoyl-CoA and 10 ng/μL of DGAT2 membrane.

hDGAT2, sequence (Q96PD7 whole entry): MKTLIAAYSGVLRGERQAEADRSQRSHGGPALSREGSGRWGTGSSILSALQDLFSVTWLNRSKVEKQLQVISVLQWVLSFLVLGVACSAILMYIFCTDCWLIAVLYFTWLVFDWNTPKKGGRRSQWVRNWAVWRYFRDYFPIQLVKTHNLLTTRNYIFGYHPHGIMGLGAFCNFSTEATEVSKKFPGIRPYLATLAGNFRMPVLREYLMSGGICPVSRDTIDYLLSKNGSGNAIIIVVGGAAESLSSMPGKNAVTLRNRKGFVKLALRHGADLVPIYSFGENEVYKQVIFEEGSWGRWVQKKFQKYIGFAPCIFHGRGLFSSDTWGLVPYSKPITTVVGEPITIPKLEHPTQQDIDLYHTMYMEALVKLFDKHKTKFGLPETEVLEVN

| SMILES | IC50 [µM] |
| --- | --- |
| Cn1nccc1-c1ccc(CNC(=O)[C@@H]2C[C@H]2c2ccccc2)c2c1CCN(C(=O)NC(C)(C)C)C2 (relative stereo) [Example 30, N-(tert-butyl)-5-(1-methyl-1H-pyrazol-5-yl)-8-(((trans)-2-phenylcyclopropanecarboxamido)methyl)-3,4-dihydroisoquinoline-2(1H)-carboxamide] | 1.17 |
| Cc1cc(C)n(-c2cccc(-c3ccc(CNC(=O)[C@@H]4C[C@H]4c4ccccc4)c4c3CCN(C(=O)NC(C)(C)C)C4)c2)n1 (relative stereo) [Example 31, N-(tert-butyl)-5-(3-(3,5-dimethyl-1H-pyrazol-1-yl)phenyl)-8-(((trans)-2-phenylcyclopropanecarboxamido)methyl)-3,4-dihydroisoquinoline-2(1H)-carboxamide] | 6.09 |
| CC(C)(C)NC(=O)N1CCc2c(-c3ccnc4[nH]ccc34)ccc(CNC(=O)[C@@H]3C[C@H]3c3ccccc3)c2C1 (relative stereo) [Example 32, N-(tert-butyl)-8-(((trans)-2-phenylcyclopropanecarboxamido)methyl)-5-(1H-pyrrolo[2,3-b]pyridin-4-yl)-3,4-dihydroisoquinoline-2(1H)-carboxamide] | 1.46 |
| Cn1nnc2ccc(-c3ccc(CNC(=O)[C@@H]4C[C@H]4c4ccccc4)c4c3CCN(C(=O)NC(C)(C)C)C4)cc21 (relative stereo) [Example 33, N-(tert-butyl)-5-(1-methyl-1H-benzo[d][1,2,3]triazol-6-yl)-8-(((trans)-2-phenylcyclopropanecarboxamido)methyl)-3,4-dihydroisoquinoline-2(1H)-carboxamide] | 2.86 |
| CC(C)(C)NC(=O)N1CCc2c(-c3cccc(-n4cccn4)c3)ccc(CNC(=O)[C@@H]3C[C@H]3c3ccccc3)c2C1 (relative stereo) [Example 34, 5-(3-(1H-pyrazol-1-yl)phenyl)-N-(tert-butyl)-8-(((trans)-2-phenylcyclopropanecarboxamido)methyl)-3,4-dihydroisoquinoline-2(1H)-carboxamide] | 0.0116 |
| CC(C)(C)NC(=O)N1CCc2c(-c3cnn(-c4ccccc4)c3)ccc(CNC(=O)[C@@H]3C[C@H]3c3ccccc3)c2C1 (relative stereo) [Example 35, N-(tert-butyl)-5-(1-phenyl-1H-pyrazol-4-yl)-8-(((trans)-2-phenylcyclopropanecarboxamido)methyl)-3,4-dihydroisoquinoline-2(1H)-carboxamide] | 1.17 |
| CC(=O)Nc1cccc(-c2ccc(CNC(=O)[C@@H]3C[C@H]3c3ccccc3)c3c2CCN(C(=O)NC(C)(C)C)C3)c1 (relative stereo) [Example 36, 5-(3-acetamidophenyl)-N-(tert-butyl)-8-(((trans)-2-phenylcyclopropanecarboxamido)methyl)-3,4-dihydroisoquinoline-2(1H)-carboxamide] | 0.352 |
| CC(C)Cn1cc(-c2ccc(CNC(=O)[C@@H]3C[C@H]3c3ccccc3)c3c2CCN(C(=O)NC(C)(C)C)C3)cn1 (relative stereo) [Example 37, N-(tert-butyl)-5-(1-isobutyl-1H-pyrazol-4-yl)-8-(((trans)-2-phenylcyclopropanecarboxamido)methyl)-3,4-dihydroisoquinoline-2(1H)-carboxamide] | 0.0956 |
| CC(C)(C)NC(=O)N1CCc2c(-c3cccc(C(=O)NC4CC4)c3)ccc(CNC(=O)[C@@H]3C[C@H]3c3ccccc3)c2C1 (relative stereo) [Example 38, N-(tert-butyl)-5-(3-(cyclopropylcarbamoyl)phenyl)-8-(((trans)-2-phenylcyclopropanecarboxamido)methyl)-3,4-dihydroisoquinoline-2(1H)-carboxamide] | 1.43 |
| CC(C)(C)NC(=O)N1CCc2c(-c3cccc(NS(C)(=O)=O)c3)ccc(CNC(=O)[C@@H]3C[C@H]3c3ccccc3)c2C1 (relative stereo) [Example 39, N-(tert-butyl)-5-(3-(methylsulfonamido)phenyl)-8-(((trans)-2-phenylcyclopropanecarboxamido)methyl)-3,4-dihydroisoquinoline-2(1H)-carboxamide] | 0.832 |
| CC(C)(C)NC(=O)N1CCc2c(-c3cnn(Cc4ccccc4)c3)ccc(CNC(=O)[C@@H]3C[C@H]3c3ccccc3)c2C1 (relative stereo) [Example 40, 5-(1-benzyl-1H-pyrazol-4-yl)-N-(tert-butyl)-8-(((trans)-2-phenylcyclopropanecarboxamido)methyl)-3,4-dihydroisoquinoline-2(1H)-carboxamide] | 4.79 |
| Cc1noc(C)c1-c1ccc(CNC(=O)[C@@H]2C[C@H]2c2ccccc2)c2c1CCN(C(=O)NC(C)(C)C)C2 (relative stereo) [Example 41, N-(tert-butyl)-5-(3,5-dimethylisoxazol-4-yl)-8-(((trans)-2-phenylcyclopropanecarboxamido)methyl)-3,4-dihydroisoquinoline-2(1H)-carboxamide] | 1.44 |
| CC(C)(C)NC(=O)N1CCc2c(-c3cccc(C(N)=O)c3)ccc(CNC(=O)[C@@H]3C[C@H]3c3ccccc3)c2C1 (relative stereo) [Example 42, N-(tert-butyl)-5-(3-carbamoylphenyl)-8-(((trans)-2-phenylcyclopropanecarboxamido)methyl)-3,4-dihydroisoquinoline-2(1H)-carboxamide] | 0.155 |
| CC(C)(C)NC(=O)N1CCc2c(-c3ccn4ncnc4c3)ccc(CNC(=O)[C@@H]3C[C@H]3c3ccccc3)c2C1 (relative stereo) [Example 43, 5-([1,2,4]triazolo[1,5-a]pyridin-7-yl)-N-(tert-butyl)-8-(((trans)-2-phenylcyclopropanecarboxamido)methyl)-3,4-dihydroisoquinoline-2(1H)-carboxamide] | 3.13 |
| CC(C)(C)NC(=O)N1CCc2c(-c3cccc4c3CNC4=O)ccc(CNC(=O)[C@@H]3C[C@H]3c3ccccc3)c2C1 (relative stereo) [Example 44, N-(tert-butyl)-5-(1-oxoisoindolin-4-yl)-8-(((trans)-2-phenylcyclopropanecarboxamido)methyl)-3,4-dihydroisoquinoline-2(1H)-carboxamide] | 7.48 |
| CC(C)(C)NC(=O)N1CCc2c(-c3ccc4c(c3)CNC4=O)ccc(CNC(=O)[C@@H]3C[C@H]3c3ccccc3)c2C1 (relative stereo) [Example 45, N-(tert-butyl)-5-(1-oxoisoindolin-5-yl)-8-(((trans)-2-phenylcyclopropanecarboxamido)methyl)-3,4-dihydroisoquinoline-2(1H)-carboxamide] | 2.65 |
| CCOC(=O)c1cncc(-c2ccc(CNC(=O)[C@@H]3C[C@H]3c3ccccc3)c3c2CCN(C(=O)NC(C)(C)C)C3)c1 (relative stereo) [Example 46, ethyl 5-(2-(tert-butylcarbamoyl)-8-(((trans)-2-phenylcyclopropanecarboxamido)methyl)-1,2,3,4-tetrahydroisoquinolin-5-yl)nicotinate] | 0.00066 |
| CC(C)(C)NC(=O)N1CCc2c(-c3cncc(C(F)(F)F)c3)ccc(CNC(=O)[C@@H]3C[C@H]3c3ccccc3)c2C1 (relative stereo) [Example 47, N-(tert-butyl)-8-(((trans)-2-phenylcyclopropanecarboxamido)methyl)-5-(5-(trifluoromethyl)pyridin-3-yl)-3,4-dihydroisoquinoline-2(1H)-carboxamide] | 0.173 |
| CC(C)(C)NC(=O)N1CCc2c(-c3cccc(-n4nccn4)c3)ccc(CNC(=O)[C@@H]3C[C@H]3c3ccccc3)c2C1 (relative stereo) [Example 48, 5-(3-(2H-1,2,3-triazol-2-yl)phenyl)-N-(tert-butyl)-8-(((trans)-2-phenylcyclopropanecarboxamido)methyl)-3,4-dihydroisoquinoline-2(1H)-carboxamide] | 0.0976 |
| CC(C)(C)NC(=O)N1CCc2c(-c3cccc(-c4nnco4)c3)ccc(CNC(=O)[C@@H]3C[C@H]3c3ccccc3)c2C1 (relative stereo) [Example 49, 5-(3-(1,3,4-oxadiazol-2-yl)phenyl)-N-(tert-butyl)-8-(((trans)-2-phenylcyclopropanecarboxamido)methyl)-3,4-dihydroisoquinoline-2(1H)-carboxamide] | 0.0104 |
